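Tested at 5 concentrations; 48 h exposure; 96-well plates; endpoints linearly interpolated, else capped at highest concentration. TGI: concentration producing complete growth inhibition.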
System: A549 NSCLC
Assay: NCI-60 cell line screen, 48 h

Compound	TGI [µM]
CC(C)(C)OC(=O)N(CCCCN(CCCNC(=O)C(F)(F)F)C(=O)OC(C)(C)C)CCCNC(=O)C(F)(F)F	> 100
O=C(Nc1ccccc1)c1cc(S(=O)(=O)NC2=NC(c3ccccc3)c3cc(Cl)ccc3N2)c(SSc2cc(Cl)c(C(=O)Nc3ccccc3)cc2S(=O)(=O)NC2=NC(c3ccccc3)c3cc(Cl)ccc3N2)cc1Cl (stereo not given)	> 100
Cc1[nH]c(=O)nc2nc3ccc(Cl)cc3c(NCCNCCO)c12	33
COc1ccc(C2SC(N)=Nc3c2c(C)nn3C(=O)c2ccncc2)cc1OC (stereo not given)	> 10
O=c1oc2ccc3ccccc3c2cc1-c1nc2ccccc2s1	> 100
CC(C)(C)OC(=O)NC1CCCCC1NC(=O)C(=O)NC1CCCCC1NC(=O)OC(C)(C)C (stereo not given)	> 100
COc1cc(C2c3cc4c(cc3OC(N3CCCCC3)C2C)OCO4)cc(OC)c1O (stereo not given)	27.1
COC(=O)c1ccc(/C=C/c2cc(O)ccc2O)cc1	> 100
Brc1ccc2[nH]cc(-c3csc(-c4c[nH]c5ccccc45)n3)c2c1	20.2
COc1cc(OC)cc(Oc2nc3ccccc3nc2C(F)(F)F)c1	> 100

System: BT-549 breast
Assay: NCI-60 cell line screen, 48 h

Compound	TGI [µM]
CC(C)(C)OC(=O)N(CCCCN(CCCNC(=O)C(F)(F)F)C(=O)OC(C)(C)C)CCCNC(=O)C(F)(F)F	> 100
O=C(Nc1ccccc1)c1cc(S(=O)(=O)NC2=NC(c3ccccc3)c3cc(Cl)ccc3N2)c(SSc2cc(Cl)c(C(=O)Nc3ccccc3)cc2S(=O)(=O)NC2=NC(c3ccccc3)c3cc(Cl)ccc3N2)cc1Cl (stereo not given)	> 100
Cc1[nH]c(=O)nc2nc3ccc(Cl)cc3c(NCCNCCO)c12	30.5
COc1ccc(C2SC(N)=Nc3c2c(C)nn3C(=O)c2ccncc2)cc1OC (stereo not given)	> 10
O=c1oc2ccc3ccccc3c2cc1-c1nc2ccccc2s1	> 100
CC(C)(C)OC(=O)NC1CCCCC1NC(=O)C(=O)NC1CCCCC1NC(=O)OC(C)(C)C (stereo not given)	> 100
COc1cc(C2c3cc4c(cc3OC(N3CCCCC3)C2C)OCO4)cc(OC)c1O (stereo not given)	90.5
COC(=O)c1ccc(/C=C/c2cc(O)ccc2O)cc1	3.49
Brc1ccc2[nH]cc(-c3csc(-c4c[nH]c5ccccc45)n3)c2c1	22.7
COc1cc(OC)cc(Oc2nc3ccccc3nc2C(F)(F)F)c1	> 100

System: CAKI-1 renal
Assay: NCI-60 cell line screen, 48 h

Compound	TGI [µM]
CC(C)(C)OC(=O)N(CCCCN(CCCNC(=O)C(F)(F)F)C(=O)OC(C)(C)C)CCCNC(=O)C(F)(F)F	> 100
O=C(Nc1ccccc1)c1cc(S(=O)(=O)NC2=NC(c3ccccc3)c3cc(Cl)ccc3N2)c(SSc2cc(Cl)c(C(=O)Nc3ccccc3)cc2S(=O)(=O)NC2=NC(c3ccccc3)c3cc(Cl)ccc3N2)cc1Cl (stereo not given)	> 100
Cc1[nH]c(=O)nc2nc3ccc(Cl)cc3c(NCCNCCO)c12	25.4
COc1ccc(C2SC(N)=Nc3c2c(C)nn3C(=O)c2ccncc2)cc1OC (stereo not given)	> 10
O=c1oc2ccc3ccccc3c2cc1-c1nc2ccccc2s1	> 100
CC(C)(C)OC(=O)NC1CCCCC1NC(=O)C(=O)NC1CCCCC1NC(=O)OC(C)(C)C (stereo not given)	> 100
COc1cc(C2c3cc4c(cc3OC(N3CCCCC3)C2C)OCO4)cc(OC)c1O (stereo not given)	25.2
COC(=O)c1ccc(/C=C/c2cc(O)ccc2O)cc1	7.5
Brc1ccc2[nH]cc(-c3csc(-c4c[nH]c5ccccc45)n3)c2c1	9.2
COc1cc(OC)cc(Oc2nc3ccccc3nc2C(F)(F)F)c1	> 100

System: EKVX NSCLC
Assay: NCI-60 cell line screen, 48 h

Compound	TGI [µM]
CC(C)(C)OC(=O)N(CCCCN(CCCNC(=O)C(F)(F)F)C(=O)OC(C)(C)C)CCCNC(=O)C(F)(F)F	> 100
O=C(Nc1ccccc1)c1cc(S(=O)(=O)NC2=NC(c3ccccc3)c3cc(Cl)ccc3N2)c(SSc2cc(Cl)c(C(=O)Nc3ccccc3)cc2S(=O)(=O)NC2=NC(c3ccccc3)c3cc(Cl)ccc3N2)cc1Cl (stereo not given)	> 100
Cc1[nH]c(=O)nc2nc3ccc(Cl)cc3c(NCCNCCO)c12	23.8
COc1ccc(C2SC(N)=Nc3c2c(C)nn3C(=O)c2ccncc2)cc1OC (stereo not given)	> 10
O=c1oc2ccc3ccccc3c2cc1-c1nc2ccccc2s1	> 100
CC(C)(C)OC(=O)NC1CCCCC1NC(=O)C(=O)NC1CCCCC1NC(=O)OC(C)(C)C (stereo not given)	> 100
COc1cc(C2c3cc4c(cc3OC(N3CCCCC3)C2C)OCO4)cc(OC)c1O (stereo not given)	> 83.4
COC(=O)c1ccc(/C=C/c2cc(O)ccc2O)cc1	9.66
Brc1ccc2[nH]cc(-c3csc(-c4c[nH]c5ccccc45)n3)c2c1	12
COc1cc(OC)cc(Oc2nc3ccccc3nc2C(F)(F)F)c1	> 100

System: HCC-2998 colon
Assay: NCI-60 cell line screen, 48 h

Compound	TGI [µM]
CC(C)(C)OC(=O)N(CCCCN(CCCNC(=O)C(F)(F)F)C(=O)OC(C)(C)C)CCCNC(=O)C(F)(F)F	> 100
O=C(Nc1ccccc1)c1cc(S(=O)(=O)NC2=NC(c3ccccc3)c3cc(Cl)ccc3N2)c(SSc2cc(Cl)c(C(=O)Nc3ccccc3)cc2S(=O)(=O)NC2=NC(c3ccccc3)c3cc(Cl)ccc3N2)cc1Cl (stereo not given)	> 100
Cc1[nH]c(=O)nc2nc3ccc(Cl)cc3c(NCCNCCO)c12	26.5
COc1ccc(C2SC(N)=Nc3c2c(C)nn3C(=O)c2ccncc2)cc1OC (stereo not given)	> 10
O=c1oc2ccc3ccccc3c2cc1-c1nc2ccccc2s1	> 100
CC(C)(C)OC(=O)NC1CCCCC1NC(=O)C(=O)NC1CCCCC1NC(=O)OC(C)(C)C (stereo not given)	> 100
COc1cc(C2c3cc4c(cc3OC(N3CCCCC3)C2C)OCO4)cc(OC)c1O (stereo not given)	32.7
COC(=O)c1ccc(/C=C/c2cc(O)ccc2O)cc1	> 59.6
Brc1ccc2[nH]cc(-c3csc(-c4c[nH]c5ccccc45)n3)c2c1	3.96
COc1cc(OC)cc(Oc2nc3ccccc3nc2C(F)(F)F)c1	> 100

System: HOP-62 NSCLC
Assay: NCI-60 cell line screen, 48 h

Compound	TGI [µM]
CC(C)(C)OC(=O)N(CCCCN(CCCNC(=O)C(F)(F)F)C(=O)OC(C)(C)C)CCCNC(=O)C(F)(F)F	> 100
O=C(Nc1ccccc1)c1cc(S(=O)(=O)NC2=NC(c3ccccc3)c3cc(Cl)ccc3N2)c(SSc2cc(Cl)c(C(=O)Nc3ccccc3)cc2S(=O)(=O)NC2=NC(c3ccccc3)c3cc(Cl)ccc3N2)cc1Cl (stereo not given)	> 100
Cc1[nH]c(=O)nc2nc3ccc(Cl)cc3c(NCCNCCO)c12	20.6
COc1ccc(C2SC(N)=Nc3c2c(C)nn3C(=O)c2ccncc2)cc1OC (stereo not given)	> 10
O=c1oc2ccc3ccccc3c2cc1-c1nc2ccccc2s1	> 100
CC(C)(C)OC(=O)NC1CCCCC1NC(=O)C(=O)NC1CCCCC1NC(=O)OC(C)(C)C (stereo not given)	80.6
COc1cc(C2c3cc4c(cc3OC(N3CCCCC3)C2C)OCO4)cc(OC)c1O (stereo not given)	25.9
COC(=O)c1ccc(/C=C/c2cc(O)ccc2O)cc1	> 69.3
Brc1ccc2[nH]cc(-c3csc(-c4c[nH]c5ccccc45)n3)c2c1	16.4
COc1cc(OC)cc(Oc2nc3ccccc3nc2C(F)(F)F)c1	> 100

System: HT29 colon
Assay: NCI-60 cell line screen, 48 h

Compound	TGI [µM]
CC(C)(C)OC(=O)N(CCCCN(CCCNC(=O)C(F)(F)F)C(=O)OC(C)(C)C)CCCNC(=O)C(F)(F)F	> 100
O=C(Nc1ccccc1)c1cc(S(=O)(=O)NC2=NC(c3ccccc3)c3cc(Cl)ccc3N2)c(SSc2cc(Cl)c(C(=O)Nc3ccccc3)cc2S(=O)(=O)NC2=NC(c3ccccc3)c3cc(Cl)ccc3N2)cc1Cl (stereo not given)	> 100
Cc1[nH]c(=O)nc2nc3ccc(Cl)cc3c(NCCNCCO)c12	21.9
COc1ccc(C2SC(N)=Nc3c2c(C)nn3C(=O)c2ccncc2)cc1OC (stereo not given)	> 10
O=c1oc2ccc3ccccc3c2cc1-c1nc2ccccc2s1	> 100
CC(C)(C)OC(=O)NC1CCCCC1NC(=O)C(=O)NC1CCCCC1NC(=O)OC(C)(C)C (stereo not given)	> 100
COc1cc(C2c3cc4c(cc3OC(N3CCCCC3)C2C)OCO4)cc(OC)c1O (stereo not given)	> 37.5
COC(=O)c1ccc(/C=C/c2cc(O)ccc2O)cc1	> 100
Brc1ccc2[nH]cc(-c3csc(-c4c[nH]c5ccccc45)n3)c2c1	3.29
COc1cc(OC)cc(Oc2nc3ccccc3nc2C(F)(F)F)c1	> 100

System: IGROV1 ovarian
Assay: NCI-60 cell line screen, 48 h

Compound	TGI [µM]
CC(C)(C)OC(=O)N(CCCCN(CCCNC(=O)C(F)(F)F)C(=O)OC(C)(C)C)CCCNC(=O)C(F)(F)F	> 100
O=C(Nc1ccccc1)c1cc(S(=O)(=O)NC2=NC(c3ccccc3)c3cc(Cl)ccc3N2)c(SSc2cc(Cl)c(C(=O)Nc3ccccc3)cc2S(=O)(=O)NC2=NC(c3ccccc3)c3cc(Cl)ccc3N2)cc1Cl (stereo not given)	> 100
Cc1[nH]c(=O)nc2nc3ccc(Cl)cc3c(NCCNCCO)c12	25.4
COc1ccc(C2SC(N)=Nc3c2c(C)nn3C(=O)c2ccncc2)cc1OC (stereo not given)	> 10
O=c1oc2ccc3ccccc3c2cc1-c1nc2ccccc2s1	> 100
CC(C)(C)OC(=O)NC1CCCCC1NC(=O)C(=O)NC1CCCCC1NC(=O)OC(C)(C)C (stereo not given)	> 100
COc1cc(C2c3cc4c(cc3OC(N3CCCCC3)C2C)OCO4)cc(OC)c1O (stereo not given)	36.4
COC(=O)c1ccc(/C=C/c2cc(O)ccc2O)cc1	9.42
Brc1ccc2[nH]cc(-c3csc(-c4c[nH]c5ccccc45)n3)c2c1	11.6
COc1cc(OC)cc(Oc2nc3ccccc3nc2C(F)(F)F)c1	> 100

System: KM12 colon
Assay: NCI-60 cell line screen, 48 h

Compound	TGI [µM]
CC(C)(C)OC(=O)N(CCCCN(CCCNC(=O)C(F)(F)F)C(=O)OC(C)(C)C)CCCNC(=O)C(F)(F)F	> 100
O=C(Nc1ccccc1)c1cc(S(=O)(=O)NC2=NC(c3ccccc3)c3cc(Cl)ccc3N2)c(SSc2cc(Cl)c(C(=O)Nc3ccccc3)cc2S(=O)(=O)NC2=NC(c3ccccc3)c3cc(Cl)ccc3N2)cc1Cl (stereo not given)	> 100
Cc1[nH]c(=O)nc2nc3ccc(Cl)cc3c(NCCNCCO)c12	23
COc1ccc(C2SC(N)=Nc3c2c(C)nn3C(=O)c2ccncc2)cc1OC (stereo not given)	> 10
O=c1oc2ccc3ccccc3c2cc1-c1nc2ccccc2s1	> 100
CC(C)(C)OC(=O)NC1CCCCC1NC(=O)C(=O)NC1CCCCC1NC(=O)OC(C)(C)C (stereo not given)	> 100
COc1cc(C2c3cc4c(cc3OC(N3CCCCC3)C2C)OCO4)cc(OC)c1O (stereo not given)	50.6
COC(=O)c1ccc(/C=C/c2cc(O)ccc2O)cc1	28
Brc1ccc2[nH]cc(-c3csc(-c4c[nH]c5ccccc45)n3)c2c1	5.69
COc1cc(OC)cc(Oc2nc3ccccc3nc2C(F)(F)F)c1	> 100

System: NCI-H226 lung
Assay: NCI-60 cell line screen, 48 h

Compound	TGI [µM]
CC(C)(C)OC(=O)N(CCCCN(CCCNC(=O)C(F)(F)F)C(=O)OC(C)(C)C)CCCNC(=O)C(F)(F)F	> 100
O=C(Nc1ccccc1)c1cc(S(=O)(=O)NC2=NC(c3ccccc3)c3cc(Cl)ccc3N2)c(SSc2cc(Cl)c(C(=O)Nc3ccccc3)cc2S(=O)(=O)NC2=NC(c3ccccc3)c3cc(Cl)ccc3N2)cc1Cl (stereo not given)	> 100
Cc1[nH]c(=O)nc2nc3ccc(Cl)cc3c(NCCNCCO)c12	29.8
COc1ccc(C2SC(N)=Nc3c2c(C)nn3C(=O)c2ccncc2)cc1OC (stereo not given)	> 10
O=c1oc2ccc3ccccc3c2cc1-c1nc2ccccc2s1	> 100
CC(C)(C)OC(=O)NC1CCCCC1NC(=O)C(=O)NC1CCCCC1NC(=O)OC(C)(C)C (stereo not given)	> 100
COc1cc(C2c3cc4c(cc3OC(N3CCCCC3)C2C)OCO4)cc(OC)c1O (stereo not given)	> 64.2
COC(=O)c1ccc(/C=C/c2cc(O)ccc2O)cc1	> 27
Brc1ccc2[nH]cc(-c3csc(-c4c[nH]c5ccccc45)n3)c2c1	4.56
COc1cc(OC)cc(Oc2nc3ccccc3nc2C(F)(F)F)c1	> 100

Source: PubChem BioAssay (NCI)
